Source: PMC6611794, “Development of a high-throughput strategy for discovery of potent analogues of antibiotic lysocin E” (Nature Communications, 2019)
Several values for one entry are separate records, joined by “and”; a condition that tells them apart may be missing. Equal values may be shown once. Read-outs that look alike come from different tables or passages of the source. Where a SMILES comes first, the peptide text is derived from it. Bridges are numbered along the chain shown (N, C = ends). [ ]: non-standard residue; d: D form. The star is where a group is joined. Hexanoyl(3R-OH,5-Me) = CC(C)C[C@@H](O)CC(=O)*; dNMeF = CN[C@H](Cc1ccccc1)C(=O)O; dOrn = NCCC[C@@H](N)C(=O)O

Columns and labels:
[1] = On-bead menaquinone complexation assay (fluorescence of 2H); type: binding; details: single library bead (hit beads >1000 a.u.), average of three readings
Protocol: Next, the feasibility of the on-bead complexation assay was assessed using bead-linked lysocin E 30 and MK-4 (2). Our initial assay based on the finding that 1 and 2 form a red precipitate upon complexation (Supplementary Fig. 2) was not robust, because the magnitude of the red color was not proportional to the amount of captured 2 (Fig. 2b, c). We therefore developed a fluorescence-based method for quantifying 2 by reducing its naphthoquinone moiety to fluorescent hydroquinone 2H. One bead of 30 was incubated with 2 in MeOH, washed by MeOH in a microplate well, and then the bead-bound 2 was eluted under more forcing hydrophobic conditions (n-BuOH at 50 °C). The eluate containing 2 was treated with NaBH4 in n-BuOH to produce 2H[46]. The fluorescence intensity of 2H was evaluated to determine the quantity of 2 bound to one bead of 30. The method was found with a small margin of error (1026 ± 64 a.u.), indicating its high accuracy (Fig. 2a and Supplementary Fig. 3). Importantly, the structure of 1 remained intact during the complexation assay as judged by UHPLC and mass analyses.
General procedures for menaquinone complexation assay. To the bead-linked lysocin E analogues in LibraTube was added a solution of menaquinone-4 (2) in MeOH (10 mM, 1.0 mL/1000 beads). The mixture was incubated at room temperature for 12 h. A suspension of the beads in MeOH (200 beads/200 µL) was transferred to a 2.0 mL microtube.
Each bead in the microtube was transferred to each well of a 96-well filtration plate (278011, Thermo Fisher Scientific, 1 bead/well) with the solution of 2 (20 µL/bead) using a micropipette. To each well was added MeOH (400 µL), and the beads was filtered by gravity flow (× 3). The beads in the plate were dried under vacuum for 0.5–1 h. The dried beads were transferred to a 96-well PCR plate (652270, Greiner bio-one, 1 bead/well) with MeOH (20 µL/well) using a micropipette. The solution was removed under a stream of Ar at 40 °C to give the 2-bound bead-linked peptides.
To the 2-bound bead-linked peptides in the plate was added n-BuOH (30 µL/well) at room temperature .
The suspension was incubated at 50 °C for 1 h. The resultant mixture in the plate was centrifuged at 3500 × g at room temperature for 10 sec . The supernatant in each well was transferred to the corresponding well of a black polystyrene flat -bottom 96-well plate (655086, Greiner bio-one). The solution was concentrated under a stream of Ar at 40 °C to give the eluted 2.
To the above eluted 2 in the plate was added n-BuOH (25 µL/well) at room temperature. The plate was vortexed at room temperature for 10 min. To the resultant solution was added a solution of NaBH4 in n-BuOH (1.0 mM, 25 µL/well). The plate was vortexed at room temperature for 10 min. The fluorescence of menahydroquinone (2H, Ex. 250 nm/Em. 430 nm) of each well was measured at room temperature every 3 min (0, 3, and 6 min) on Gemini EM microplate reader (Molecular Devices) . The three fluorescence intensities of each bead were averaged and plotted against the bead number.
Evaluation of menaquinone complexation activities of the selected bead-linked peptides. Bead-linked peptides 30, BLP1, and BLP2 were synthesized according to the above described procedures (loading rate:
0.222 mmol/g). The bead-linked peptides were subjected to the MK complexation assay described above.
The obtained fluorescent intensities of 2H (arbitrary unit) were 1026 ± 64 for 30, 396 ± 27 for BLP1, 72.9 ± 2.0 for BLP2, and 41.6 ± 0.1 for background adsorption (no bead), respectively (Supplementary Figure 3).

[2] = Protocol: Preparation of LUVs consisting of PC/PG/MK-4 or PC/PG/UQ-10. To a solution of egg yolk phosphatidylcholine (9.48 mg, 12.4 µmol) and egg yolk phosphatidylglycerol (9.66 mg, 12.4 µmol) in CHCl3 (0.208 mL) was added a solution of MK-4 (2) or UQ-10 (3) (0.313 µmol) in CHCl3 (21.8 µL). The solution was concentrated, and dried under vacuum to for m a lipid thin film. The thin film was hydrated and suspended in carboxyfluorescein-containing buffer solution (0.500 mL, 5 mM HEPES, 20 mM carboxyfluorescein , pH 7.5) by vortexing and sonication. After five-times freeze-thaw cycles, the lipid suspension was extruded 19 times through a polycarbonate filter with 0.40 µm of pore siz e in the diameter.
The external carboxyfluorescein -containing buffer was replaced with a carboxyfluorescein -free buffer solution (20 mM HEPES, 1 mM EDTA, pH 7.5) through size exclusion chromatography using disposable PD -10 column. Concentration of egg yolk phosphatidylcholine was determined by using Phospholipid C -Test Wako.
The final concentration of egg yolk phosphatidylcholine was adjusted to 4.0 µM with the carboxyfluorescein -free buffer solution, and the solution was used for membrane disruption ass ay.
Membrane disruption assay. […]
to various concentrations as 5-fold serial dilutions. The solution of peptides (2 µL/well) and the carboxyfluorescein-encapsulated LUV suspension (200 µL/well) were mixed in black polystyrene flat-bottom 96-well plates. The final concentration of peptides ranged from 2970 nM to 0.950 nM. The plates were vortexed at room temperature for 30 min, and then fluorescence of carboxyfluorescein (Ex. 490 nm/Em. 517 nm) of each well was measured at room temperature on Gemini EM microplate reader. Trion X-100/H2O (5/95, 2 µL), MeOH/H2O (4/6, 2 µL), and the LUV suspension were mixed in each plate to determine 100% lysis. MeOH/H2O (4/6, 2 µL) and the LUV suspension were mixed in each plate to determine 0% lysis.
The membrane disruption activities of tested peptides (I) were normalized against 100% lysis by Triton X -100 […]
(Imax) and 0% lysis by MeOH/H2O (4/6) (I0) as following, where Ix is the fluorescence intensity (Supplementary Equation 2).
I = 100 × (Ix – I0) / (Imax – I0) (2)
The membrane-disrupting activities were evaluated as half-maximal response (EC50, nM) values by means of three replicates. Sigmoidal curve fittings were performed on R2 with drc package (Supplementary Figs S7–S9).3 Two-parameter logistic model was applied for the fitting.

[3] = read-out: EC50 PC/PG/2 1st, PC/PG/2 LUVs, 1st experiment
[4] = read-out: EC50 PC/PG/2 2nd, PC/PG/2 LUVs, 2nd experiment
[5] = read-out: EC50 PC/PG/2 3rd, PC/PG/2 LUVs, 3rd experiment
[6] = read-out: EC50 PC/PG/2, 30 min, room temperature, mean ± SD of three independent experiments

EC50 [2, 3]	EC50 [2, 4]	EC50 [2, 5]	EC50 [2, 6]	Compound	fluorescence intensity of 2H ([1]; listed as YLOI)	selectivity index (EC50 against PC/PG/3 divided by EC50 against PC/PG/2) [2]	fluorescence intensity of 2H [1]
24.6 nM	27.8 nM	14.9 nM	22.4 ± 6.7 nM	CC[C@H](C)[C@@H]1NC(=O)[C@@H](Cc2c[nH]c3ccccc23)NC(=O)[C@@H](CCCN)NC(=O)[C@H](CCC(=O)O)NC(=O)[C@@H](CCCNC(=N)N)NC(=O)[C@H](CC(C)C)NC(=O)[C@@H](Cc2ccccc2)N(C)C(=O)CNC(=O)[C@H](Cc2ccc(O)cc2)NC(=O)[C@@H](CCCNC(=N)N)NC(=O)[C@@H](NC(=O)C[C@H](O)CC(C)C)[C@@H](C)OC(=O)[C@H]([C@@H](C)O)NC1=O [Peptide A7] ({Hexanoyl(3R-OH,5-Me)}-T[dR]YG[dNMeF]L[dR]E[dOrn][dW]IT; ester 1-C)	1035.66 a.u. and 1123.94 a.u.	19.7	
57.6 nM	39.6 nM	9 nM	35.4 ± 24.6 nM	CC(C)C[C@@H](O)CC(=O)N[C@@H]1C(=O)N[C@H](CCCNC(=N)N)C(=O)N[C@@H](C)C(=O)NCC(=O)N(C)[C@H](Cc2ccccc2)C(=O)N[C@@H](CC(C)C)C(=O)N[C@H](CCCNC(=N)N)C(=O)N[C@@H](CCC(=O)O)C(=O)N[C@H](Cc2ccc(O)cc2)C(=O)N[C@H](Cc2c[nH]c3ccccc23)C(=O)N[C@@H](Cc2ccc(O)cc2)C(=O)N[C@@H]([C@@H](C)O)C(=O)O[C@@H]1C [Peptide A15] ({Hexanoyl(3R-OH,5-Me)}-T[dR]AG[dNMeF]L[dR]E[dY][dW]YT; ester 1-C)			1125.25 a.u.
437 nM	178 nM	144 nM	253 ± 160 nM	CC[C@H](C)[C@@H]1NC(=O)[C@@H](Cc2c[nH]c3ccccc23)NC(=O)[C@@H](Cc2ccc(O)cc2)NC(=O)[C@H](CCC(=O)O)NC(=O)[C@@H](CCCNC(=N)N)NC(=O)[C@H](CC(C)C)NC(=O)[C@@H](Cc2ccccc2)N(C)C(=O)CNC(=O)[C@H](CC(=O)O)NC(=O)[C@@H](CCCNC(=N)N)NC(=O)[C@@H](NC(=O)C[C@H](O)CC(C)C)[C@@H](C)OC(=O)[C@H]([C@@H](C)O)NC1=O [Peptide A17] ({Hexanoyl(3R-OH,5-Me)}-T[dR]DG[dNMeF]L[dR]E[dY][dW]IT; ester 1-C)			1396.02 a.u.

Second part, the compound before the results:

Compound	EC50 [2, 3]	EC50 [2, 4]	EC50 [2, 5]	EC50 [2, 6]	fluorescence intensity of 2H ([1]; listed as YLOI)	selectivity index (EC50 against PC/PG/3 divided by EC50 against PC/PG/2) [2]	fluorescence intensity of 2H [1]
CC[C@H](C)[C@@H]1NC(=O)[C@@H](Cc2c[nH]c3ccccc23)NC(=O)[C@@H](CCCN)NC(=O)[C@H](CCC(=O)O)NC(=O)[C@@H](CCCNC(=N)N)NC(=O)[C@H](CC(C)C)NC(=O)[C@@H](Cc2ccccc2)N(C)C(=O)CNC(=O)[C@H](CC(N)=O)NC(=O)[C@@H](CCCNC(=N)N)NC(=O)[C@@H](NC(=O)C[C@H](O)CC(C)C)[C@@H](C)OC(=O)[C@H]([C@@H](C)O)NC1=O [Peptide A14] ({Hexanoyl(3R-OH,5-Me)}-T[dR]NG[dNMeF]L[dR]E[dOrn][dW]IT; ester 1-C)	118 nM	79.1 nM	31.9 nM	76.3 ± 43.1 nM		> 19.7	1470.92 a.u.
CC[C@H](C)[C@@H]1NC(=O)[C@@H](Cc2c[nH]c3ccccc23)NC(=O)[C@@H](CCCN)NC(=O)[C@H](CCC(=O)O)NC(=O)[C@@H](CCCNC(=N)N)NC(=O)[C@H](CC(C)C)NC(=O)[C@@H](Cc2ccccc2)N(C)C(=O)CNC(=O)[C@H](CC(=O)O)NC(=O)[C@@H](CCCNC(=N)N)NC(=O)[C@@H](NC(=O)C[C@H](O)CC(C)C)[C@@H](C)OC(=O)[C@H]([C@@H](C)O)NC1=O [Peptide A16] ({Hexanoyl(3R-OH,5-Me)}-T[dR]DG[dNMeF]L[dR]E[dOrn][dW]IT; ester 1-C)	70.1 nM	33.5 nM	17.1 nM	40.3 ± 27.1 nM		20.6	1414.45 a.u.
